Measurements published in publication PMC5085100, “Conjugation to the sigma-2 ligand SV119 overcomes uptake blockade and converts dm-Erastin into a potent pancreatic cancer therapeutic” (Oncotarget, 2016).

Target: T1, cystine/glutamate antiporter (system xc-) (Homo sapiens, UniProt Q9UPY5)
T1 construct: gene SLC7A11
T1 sequence (Q9UPY5 1-501): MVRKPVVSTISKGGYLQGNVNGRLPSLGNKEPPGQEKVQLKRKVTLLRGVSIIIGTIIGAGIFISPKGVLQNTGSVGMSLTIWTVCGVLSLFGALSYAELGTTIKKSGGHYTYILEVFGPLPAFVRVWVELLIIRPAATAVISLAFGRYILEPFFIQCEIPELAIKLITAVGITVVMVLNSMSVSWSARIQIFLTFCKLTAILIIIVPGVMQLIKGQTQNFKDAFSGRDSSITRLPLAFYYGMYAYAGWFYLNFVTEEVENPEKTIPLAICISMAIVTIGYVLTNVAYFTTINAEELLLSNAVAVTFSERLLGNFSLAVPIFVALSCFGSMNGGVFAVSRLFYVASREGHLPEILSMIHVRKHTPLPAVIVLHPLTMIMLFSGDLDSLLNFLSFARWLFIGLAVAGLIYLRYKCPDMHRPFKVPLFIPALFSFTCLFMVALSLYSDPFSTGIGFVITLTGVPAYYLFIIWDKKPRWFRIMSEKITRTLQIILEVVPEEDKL
T1 sequence (P08195 2-529 partner): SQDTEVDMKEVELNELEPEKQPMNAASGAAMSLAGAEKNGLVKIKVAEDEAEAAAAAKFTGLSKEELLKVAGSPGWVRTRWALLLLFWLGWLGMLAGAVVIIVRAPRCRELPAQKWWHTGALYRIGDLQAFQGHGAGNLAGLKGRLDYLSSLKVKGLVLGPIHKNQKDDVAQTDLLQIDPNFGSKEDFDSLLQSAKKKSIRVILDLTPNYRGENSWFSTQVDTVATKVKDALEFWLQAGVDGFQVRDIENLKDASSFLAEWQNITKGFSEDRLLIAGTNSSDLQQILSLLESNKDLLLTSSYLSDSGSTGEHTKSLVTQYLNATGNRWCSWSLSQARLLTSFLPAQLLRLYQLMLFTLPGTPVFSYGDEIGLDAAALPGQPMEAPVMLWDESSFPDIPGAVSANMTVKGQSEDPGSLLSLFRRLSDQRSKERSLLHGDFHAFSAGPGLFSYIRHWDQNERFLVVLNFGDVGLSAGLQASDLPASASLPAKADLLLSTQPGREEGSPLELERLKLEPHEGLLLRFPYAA
Assay: […]-cystine uptake inhibition in AsPC-1 cells, […] min at […]
Type: cell-based
Conditions: ASPC1; read-out: % blockade at 200 μM

Compound: CCOc1ccccc1-n1c(CN2CCN(C(=O)COc3ccc(CNCCCCCCN4C5CCCC4CC(OC(=O)Nc4cc(C)ccc4OC)C5)cc3)CC2)nc2ccccc2c1=O (stereo not shown) [SW V-49]
- inhibition at 200 µM: 85%
